Assay results published in publication PMC9133015 (Nature Communications, 2022).
Where “and” joins values, the source holds several entries; their conditions need not be identical. Identical values can stand only once.

Assays:
22Rv1 cells [1] = assay: Cell growth assay (5-day course); format: cell-based, human; settings: 22Rv1, 0.5 µM
PC-3 cells = assay: Cell growth assay (5-day course); format: cell-based, human; settings: PC-3, 4 µM; for Relative proliferation rate / optical density: replicates
DU145 cells = assay: Cell growth assay (5-day course); format: cell-based, human; settings: DU145, 2 μM
PC-3 xenograft = assay: In vivo antitumor activity, PC-3 xenograft mouse model; set-up: species or system BALB/c nude mice; settings: Palbociclib group; for tumor volume (Figure S10a): in mm³ (unit assumed)
RWPE-1 cells = assay: Anti-proliferation activity assay (CCK8, 72 h); format: cell-based; settings: RWPE1; for Relative proliferation rate (%) / optical density: replicates
DU145 xenograft = assay: H&E and Ki67 staining of xenograft tumor tissues; format: in vivo, BALB/c nude mice; settings: DU145, reference drug groups, replicates
22Rv1 cells [2] = assay: Invasion assay (transwell); format: cell-based, human; settings: 22Rv1, 0.5 μM, replicates
22Rv1 cells [3] = assay: Anti-proliferation activity assay (CCK8, 72 h); format: cell-based, human; settings: 22Rv1; for Relative proliferation rate (%) / optical density: replicates

## CC(=O)c1c(C)c2cnc(Nc3ccc(N4CCNCC4)cn3)nc2n(C2CCCC2)c1=O [palbociclib]
22Rv1 cells [1]; day 1
  Relative proliferation rate mean: 1.1416
22Rv1 cells [1]; day 2
  Relative proliferation rate mean: 1.363
22Rv1 cells [1]; day 3
  Relative proliferation rate mean: 1.755
22Rv1 cells [1]; day 4
  Relative proliferation rate mean: 2.003
PC-3 cells; day 0
  Relative proliferation rate mean: 1
  Relative proliferation rate: 1
  optical density: 0.261
PC-3 cells; day 1
  Relative proliferation rate mean: 1.157
  Relative proliferation rate: 1.143 and 1.182 and 1.147
  optical density: 0.298 and 0.308 and 0.299
PC-3 cells; day 2
  Relative proliferation rate mean: 1.563
  Relative proliferation rate: 1.569 and 1.565 and 1.554
  optical density: 0.409 and 0.408 and 0.405
PC-3 cells; day 3
  Relative proliferation rate mean: 2.215
  Relative proliferation rate: 2.206 and 2.244 and 2.194
  optical density: 0.575 and 0.585 and 0.572
PC-3 cells; day 4
  Relative proliferation rate mean: 4.39
  Relative proliferation rate: 4.419 and 4.354 and 4.396
  optical density: 1.152 and 1.135 and 1.146
DU145 cells; day 1
  Relative proliferation rate mean: 1.596
DU145 cells; day 2
  Relative proliferation rate mean: 2.367
DU145 cells; day 3
  Relative proliferation rate mean: 5.211
DU145 cells; day 4
  Relative proliferation rate mean: 6.975
PC-3 xenograft; day 1, individual mice, in g (unit assumed)
  body weight (Figure S10b): 20.3 and 18.7 and 20.4 and 19.9 and 20.5 and 20.1 and 19.3 and 19.6
PC-3 xenograft; day 1, individual mice
  tumor volume (Figure S10a): 71.756 and 85.3384 and 76.4514 and 97.6139 and 96.2115 and 81.8398 and 86.3514 and 80.8996
PC-3 xenograft; day 3, individual mice
  body weight (Figure S10b): 20.6 (2×) and 19.9 (2×) and 20.3 (2×) and 20.4 and 19.5
  tumor volume (Figure S10a): 100.82 and 125.949 and 118.537 and 171.398 and 182.064 and 137.067 and 104.176 and 152.65
PC-3 xenograft; day 5, individual mice, in g (unit assumed)
  body weight (Figure S10b): 20.8 and 20.1 and 20.9 and 20.5 and 20.7 and 20.6 and 19.4 and 20.3
PC-3 xenograft; day 5, individual mice
  tumor volume (Figure S10a): 153.25 and 178.1 and 171.863 and 263.764 and 233.187 and 184.767 and 136.023 and 212
PC-3 xenograft; day 7, individual mice
  body weight (Figure S10b): 21.1 (2×) and 20.4 (3×) and 20.6 and 20.9 and 19.6
  tumor volume (Figure S10a): 216.949 and 236.787 and 227.898 and 326.971 and 317.909 and 235.081 and 192.895 and 301.873
PC-3 xenograft; day 9, individual mice
  body weight (Figure S10b): 21.3 and 20.2 and 21.1 and 20.9 (2×) and 21.2 and 20.1 and 19.8
  tumor volume (Figure S10a): 326.253 and 371.781 and 295.973 and 465.763 and 471.469 and 352.991 and 279.054 and 463.034
PC-3 xenograft; day 11, individual mice
  body weight (Figure S10b): 21 and 20.5 and 21.4 and 21.2 and 21.5 (2×) and 20.3 and 20.1
  tumor volume (Figure S10a): 372.859 and 454.695 and 359.079 and 528.072 and 529.867 and 450.398 and 332.776 and 546.405
PC-3 xenograft; day 13, individual mice, in g (unit assumed)
  body weight (Figure S10b): 21.3 and 20.8 and 21.6 and 21.5 and 22 and 20.7 and 20.4 and 21.8
PC-3 xenograft; day 13, individual mice
  tumor volume (Figure S10a): 420.513 and 508.608 and 384.455 and 605.279 and 564.127 and 444.148 and 375.063 and 606.531
PC-3 xenograft; day 15, individual mice
  body weight (Figure S10b): 21.1 and 20.8 and 21.3 and 21.6 and 22.2 (2×) and 20.3 and 20.7
  tumor volume (Figure S10a): 457.463 and 542.009 and 415.332 and 636.893 and 637.934 and 467.888 and 410.165 and 646.315
PC-3 xenograft; day 17, individual mice, in g (unit assumed)
  body weight (Figure S10b): 21.5 and 21.1 and 21.7 and 22 and 22.3 and 20.6 and 21 and 22.4
PC-3 xenograft; day 17, individual mice
  tumor volume (Figure S10a): 524.733 and 575.217 and 457.759 and 764.115 and 735.045 and 549.485 and 474.267 and 700.215
PC-3 xenograft; day 19, individual mice, in g (unit assumed)
  body weight (Figure S10b): 21.8 and 21.4 and 22 and 22.2 and 22.5 and 20.9 and 21.1 and 22.7
PC-3 xenograft; day 19, individual mice
  tumor volume (Figure S10a): 535.372 and 736.543 and 494.255 and 792.24 and 789.87 and 530.997 and 470.291 and 757.507
PC-3 xenograft; day 21, individual mice
  body weight (Figure S10b): 22.2 (2×) and 21.8 and 22.6 and 23 and 21.2 and 21.5 and 22.9
  tumor volume (Figure S10a): 606.966 and 810.199 and 550.471 and 875.109 and 842.441 and 533.366 and 544.597 and 821.393
PC-3 xenograft; day 23, individual mice, in g (unit assumed)
  body weight (Figure S10b): 22.4 and 21.9 and 22.5 and 22.9 and 23.5 and 21.6 and 21.7 and 23.3
PC-3 xenograft; day 23, individual mice
  tumor volume (Figure S10a): 636.352 and 826.869 and 562.019 and 936.064 and 895.067 and 564.812 and 586.01 and 861.421
PC-3 xenograft; day 25, individual mice, in g (unit assumed)
  body weight (Figure S10b): 22.7 and 22.2 and 22.8 and 23.3
PC-3 xenograft; day 25, individual mice
  tumor volume (Figure S10a): 672.525 and 833.997 and 554.501 and 942.419
PC-3 xenograft; individual mice, in g (unit assumed)
  tumor weight (Figure S10c): 0.86 and 0.74 and 1.05 and 0.97 and 0.73 and 0.85 and 0.69 and 0.92
RWPE-1 cells; 0.078 uM
  Relative proliferation rate (%) mean: 4.3459%
  Relative proliferation rate (%): 2.8348% and 5.899% and 4.304%
  optical density: 0.994 and 1.005 and 1.045
RWPE-1 cells; 0.3125 uM
  Relative proliferation rate (%) mean: 4.485%
  Relative proliferation rate (%): 1.76% and 7.21% and 4.487%
  optical density: 1.005 and 0.991 and 1.043
RWPE-1 cells; 1.25 uM
  Relative proliferation rate (%) mean: 11.7464%
  Relative proliferation rate (%): 7.038% and 16.4794% and 11.7216%
  optical density: 0.951 and 0.892 and 0.964
RWPE-1 cells; 5 uM
  Relative proliferation rate (%) mean: 24.554%
  Relative proliferation rate (%): 19.1593% and 29.8689% and 24.6337%
  optical density: 0.827 and 0.749 and 0.823
RWPE-1 cells; 20 uM
  Relative proliferation rate (%) mean: 55.5924%
  Relative proliferation rate (%): 50.0489% and 61.1423% and 55.5861%
  optical density: 0.511 and 0.415 and 0.485
RWPE-1 cells; 80 uM
  Relative proliferation rate (%) mean: 75.0851%
  Relative proliferation rate (%): 68.3284% and 81.8352% and 75.0916%
  optical density: 0.324 and 0.194 and 0.272
DU145 xenograft
  Positive rate ( % ) (Fig. 7f): 31.83% and 31.88% and 31.79%
22Rv1 cells [2]
  Cell invasion (cell number): 531 cell number and 470 cell number and 513 cell number
22Rv1 cells [3]; 0.0049 uM
  Relative proliferation rate (%) mean: 10.7151%
  Relative proliferation rate (%): 10.6906% and 8.054% and 13.4011%
  optical density: 0.944 and 0.959 and 0.937
22Rv1 cells [3]; 0.078 uM
  Relative proliferation rate (%) mean: 28.5598%
  Relative proliferation rate (%): 28.5714% and 25.4075% and 31.7006%
  optical density: 0.755 and 0.778 and 0.739
22Rv1 cells [3]; 0.3125 uM
  Relative proliferation rate (%) mean: 42.3403%
  Relative proliferation rate (%): 42.3841% and 37.8715% and 46.7652%
  optical density: 0.609 and 0.648 and 0.576
22Rv1 cells [3]; 1.25 uM
  Relative proliferation rate (%) mean: 63.5644%
  Relative proliferation rate (%): 63.5762% and 60.0192% and 67.098%
  optical density: 0.385 and 0.417 and 0.356
22Rv1 cells [3]; 5 uM
  Relative proliferation rate (%) mean: 73.8099%
  Relative proliferation rate (%): 73.6991% and 70.3739% and 77.3567%
  optical density: 0.278 and 0.309 and 0.245
22Rv1 cells [3]; 20 uM
  Relative proliferation rate (%) mean: 83.6751%
  Relative proliferation rate (%): 83.6329% and 79.9616% and 87.4307%
  optical density: 0.173 and 0.209 and 0.136
22Rv1 cells [3]; 80 uM
  Relative proliferation rate (%) mean: 92.6404%
  Relative proliferation rate (%): 92.6206% and 87.0566% and 98.244%
  optical density: 0.078 and 0.135 and 0.019
